This is an account of results in patent publication US6406701B1, “Method and compositions for preventing or reducing HIV infection” (priority 2000, dated 2002).

Like-named read-outs stand apart in the source and are kept apart here.

In data set [1] the test system is HIV. The settings on record: Tamoxifen concentrations of 10^−6M or higher; cited from earlier work.
For data set [2], the system named is HIV-1 (HTLVIIIb). It counts as cell-based. The settings on record: for Cytopathicity / Proviral Load: anti-estrogen 10^−7M combined with Mab 7B6 and thioredoxin matrices. How it is done: (§1) In the continued presence of each of the factors aforementioned, the cells were subsequently infected at a multiplicity of two infective viral particles per cell for two hours at 25° C. with constant agitation in a final volume of 1.0 ml. […] Syncytium formation was evaluated by light microscopy on days 3, 5 and 7.

The test system of data set [3] is HIV-1 (HTLVIIIb). It counts as cell-based. As to conditions: Day 5 post-infection; anti-estrogen 10^−7M combined with Mab 7B6 and thioredoxin matrices. As to the method: as §1
Prior to infection, HUT78 cells were washed three times with PBS and the cell viability was determined. Infection was performed as described above. At indicated time intervals, 1.0 mil aliquots of were taken and p24 antigen quantified using a commercial ELISA kit (p24 Antigen Capture ELISA, ABBOTT Diagnostics Division), following the instructions of the manufacturer.

Data set [4] has as its system HIV. The data set is described as follows: HIV infectivity of HUT78 cells by reverse transcriptase activity with or without 17-β-Estradiol. The settings on record: for RT Activity: estrogen 10^−7 M.
Description: The sensitivity of CD4^+ T-HUT78 cells to HIV viral infection was determined by measuring the activity of reverse transcriptase in cells infected in the presence/absence of 17-β-Estradiol.
For data set [5], the system named is breast carcinoma parental cells. The data set can be described thus: LAPase release from primary breast carcinoma parental cells after estrogen stimulation (supernatants immunoprecipitated with MAb 7B6, fluorometric assay). It counts as cell-based, human. How it is done: (§2) Control cells were cultured in the absence of 17-β-Estradiol.). During the same period, LAPase in cell supernatants of control cells remain unchanged. In addition, LAPase activity was determined in supernatants of primary parental cell lines immunoprecipitated with anti-LAP-Protein G MAb 7B6 bound antibodies. […] In addition, there was no effect of estrogen incubation on LAPase activity in purified preparations of this enzyme alone.
Primary parental breast carcinoma cells obtained from human tumour biopsies were stimulated with 100 nM 17-β-Estradiol for 24 hours or cell media alone as a control. The cell media was RPMI 1640 medium+10% FCS+100 U/ml Penicillin+100 μg/ml Streptomycin. Cell supernatants were collected and then dialyzed against PBS in seamless cellulose tubing (MW 12,400) for 12 hours at 4° C. Es-LAPase was subsequently purified from the dialyzed cell supernatants using HPLC-gel permeation followed by DEAE-Cellulose and Bestatin-Sepharose affinity Chromatography. Briefly, the cell supernatant was applied to a Bio-Sil SEC-250 column (600×7.5 mm) previously equilibrated in a buffer containing 100 mM Sodium Phosphate buffer pH 6.8, 100 mM Na2SO4, 1 μM ZnCl2 and 10% glycerol. […]
Es-LAPase activities were determined fluorometrically using leucine-b-naphthylamide as the substrate [Kuramochi, H., et al. (1987) J. Antibiot., 40,1605-1611].

The next data set has as its system LAPase. The data set is described as follows: Estrogen incubation with purified LAPase preparations. The settings on record: purified enzyme alone. It counts as biochemical. As to the method:
as §2

For another data set, the system named is HUT78 cells. The data set can be described thus: Extracellular LAPase activity of HUT78 cells incubated with 17-β-Estradiol. It counts as cell-based.
In another data set the test system is es-LAPase. The data set can be described thus: es-LAPase enzyme kinetics and inhibition (l-leucine-β-naphthylamide, 330 nm). The settings on record: for es-LAPase reaction rate versus control es-LAPase (FIG. 3): 167 μM Bestatin, 167 μM reduced glutathione, 17 μM reduced thioredoxin; for mode of es-LAPase inhibition: from Vmax, Km, Ki of Table 4. It counts as biochemical, human. As to the method: The kinetic assays were performed using a Spectronic Genesys 5 spectrophotometer from Milton Roy (Rochester, N.Y.). Absorbance was recorded every sixty seconds, over a period of 30 min. Enzyme kinetic assays were performed using 8.0×10^−2 U of es-LAPase in a final reaction volume of 600 μl and triplicate samples. […] A corresponding blank without es-LAPase was used as baseline. Both of the cuvettes were transferred to the spectrophotometer where the 1-leucine-β-naphthylamide solution was added last, marking time zero of the reaction.

Setting [6] is: es-LAPase with 167 μM inhibitor.

A word on the Km: it is the substrate concentration at which the rate is half of its maximum.

Regarding `CC/C(=C(\c1ccccc1)c1ccc(OCCN(C)C)cc1)c1ccccc1` [Tamoxifen], the “inhibition of HIV infection” value in the data set with HIV [1] was “incomplete inhibition”. Besides, in the data set on HIV-1 (HTLVIIIb) [2] (Day 5 post-infection), the Cytopathicity came out at 0 Syncytia/well and the “Proviral Load” value came out at 0 copies. The P24 with HIV-1 (HTLVIIIb) [3] amounted to 0 nmol/mL.

As to 17-β-Estradiol, in the data set on HIV [4] (3 days and 5 days post infection), the “HIV viral infectivity (RT activity) relative to control cells infected in the absence of estrogen” value is on record as “approximately 4 times”. Also, the “RT Activity” value is 0.68 cpm × 10^2/10 μl with HIV [4] (Day 0 (Infection)), 72.42 cpm × 10^2/10 μl in the data set on HIV [4] (Day 3 (Post Infection)) and 124.44 cpm × 10^2/10 μl in the data set on HIV [4] (Day 5 (Post Infection)). Besides, the “extracellular LAPase activity of estrogen stimulated cells” value in data set [5] (100 nM, 24 hours, supernatants immunoprecipitated with anti-LAP-Protein G MAb 7B6) was 7.7×10^−5 U/ml. For the same molecule, in data set [5] (breast carcinoma parental cells, 24 hours of incubation), the “estrogen concentration of maximum release of LAPase” value is given as 100 nM. In the data set on LAPase, the “effect of estrogen incubation on LAPase activity in purified preparations of the enzyme” value was “no effect”. Also, in the data set on HUT78 cells, the “concentration of maximum stimulation of LAPase release” value is 10^−7 M. Also, the “LAPase activity, 17-β-Estradiol Stimulation” value in the data set on HUT78 cells ([β-Estradiol] 10^−5 M) was determined as 10.8 U* × 10^−5/ml; in the data set with HUT78 cells ([β-Estradiol] 10^−6 M), 20.4 U* × 10^−5/ml; with HUT78 cells ([β-Estradiol] 10^−7 M), 148.6 U* × 10^−5/ml; in the data set on HUT78 cells ([β-Estradiol] 10^−8 M), 110.7 U* × 10^−5/ml.

Turning to `O=C(c1ccc(OCCN2CCCCC2)cc1)c1c(-c2ccc(O)cc2)sc2cc(O)ccc12` [Raloxifene], in the data set on HIV-1 (HTLVIIIb) [2] (Day 5 post-infection), the Cytopathicity turned out to be 3.3 ± 0.1 Syncytia/well and the “Proviral Load” value is 8 copies. In addition, the P24 in the data set with HIV-1 (HTLVIIIb) [3] is 0.01 ± .002 nmol/mL.

Take `CC/C(=C(\c1ccc(I)cc1)c1ccc(OCCN2CCCC2)cc1)c1ccccc1` [Idoxifene]: in the data set with HIV-1 (HTLVIIIb) [2] (Day 5 post-infection), the Cytopathicity came to 0 Syncytia/well and the “Proviral Load” value came to 0 copies. For the same molecule, the P24 with HIV-1 (HTLVIIIb) [3] worked out at 0 nmol/mL.

For the molecule `C#C[C@]1(O)CC[C@H]2[C@@H]3CC[C@H]4C[C@@H](O)CC[C@@H]4[C@H]3CC[C@@]21C` [3β,5α-tetrahydro Norethisterone], in the data set on HIV-1 (HTLVIIIb) [2] (Day 5 post-infection), the Cytopathicity was determined as 0 Syncytia/well and the “Proviral Load” value was 2 copies. The P24 with HIV-1 (HTLVIIIb) [3] stood at 0 nmol/mL.

With `N[C@@H](CCC(=O)N[C@@H](CS)C(=O)NCC(=O)O)C(=O)O` [Glutathione], in the data set with es-LAPase, the “es-LAPase reaction rate versus control es-LAPase (FIG. 3)” value is reported as “significant slower rates” and the “mode of es-LAPase inhibition” value is “noncompetitive”. In addition, the Vmax in the data set on es-LAPase (setting [6]) was 17.2 ± 1.5 10^−6 M/min.

Take `C[C@]12CCC(=O)C(O)=C1CC[C@@H]1[C@@H]2CC[C@]2(C)C(=O)CC[C@@H]12` [4-hydroxyandrostenedione]: in the data set on HIV-1 (HTLVIIIb) [2] (Day 5 post-infection), the Cytopathicity is 4.0 ± 0.4 Syncytia/well and the “Proviral Load” value is recorded as 12 copies. The P24 in the data set with HIV-1 (HTLVIIIb) [3] was 0.02 ± .001 nmol/mL.

Turning to `CC(C)C[C@H](NC(=O)[C@@H](O)[C@H](N)Cc1ccccc1)C(=O)O` [Bestatin], the HIV-1 proviral copies in the data set on HIV-1 (HTLVIIIb) [2] (Day 0 post-infection, 120 μg/ml) came out at 0 copies; in the data set with HIV-1 (HTLVIIIb) [2] (Day 3 post-infection, 120 μg/ml), 7 ± 2 copies; in the data set on HIV-1 (HTLVIIIb) [2] (Day 5 post-infection, 120 μg/ml), 29 ± 3 copies; in the data set on HIV-1 (HTLVIIIb) [2] (Day 7 post-infection, 120 μg/ml), 457 ± 12 copies. Also, the “es-LAPase reaction rate versus control es-LAPase (FIG. 3)” value in the data set with es-LAPase is recorded as “clearly inhibits”. In addition, the Vmax in the data set on es-LAPase (setting [6]) is 34.0 ± 3.9 10^−6 M/min. Also, the “mode of es-LAPase inhibition” value with es-LAPase was “competitive”.

Take `CC/C(=C(/c1ccc(OCCN(C)C)cc1)c1cccc(O)c1)c1ccccc1` [Droloxifene]: in the data set on HIV-1 (HTLVIIIb) [2] (Day 5 post-infection), the Cytopathicity was determined as 5.2 ± 0.6 Syncytia/well and the “Proviral Load” value came to 14 copies. In addition, the P24 in the data set on HIV-1 (HTLVIIIb) [3] is 0.04 ± .003 nmol/mL.

B1: Thioredoxin: Human Thioredoxin purified from CD4+ T MP6 cells; uncompetitive inhibitor of es-LAPase; also linked to EDC/DADPA matrix (protein, UniProt P10599 2-105, looked up)
Thioredoxin: VKQIESKTAFQEALDAAGDKLVVVDFSATWCGPCKMIKPFFHSLSEKYSNVIFLEVDVDDCQDVASECEVKCMPTFQFFKKGQKVGEFSGANKEKLEATINELV
modifications: linked to EDC/DADPA matrix
Regarding B1, the HIV-1 proviral copies in the data set on HIV-1 (HTLVIIIb) [2] (Day 0 post-infection, matrix-bound, 40 ng/5 ml) came to 0 copies; in the data set on HIV-1 (HTLVIIIb) [2] (Day 3 post-infection, matrix-bound, 40 ng/5 ml), 4 ± 1 copies; in the data set with HIV-1 (HTLVIIIb) [2] (Day 5 post-infection, matrix-bound, 40 ng/5 ml) it was 12 ± 3 copies; in the data set on HIV-1 (HTLVIIIb) [2] (Day 7 post-infection, matrix-bound, 40 ng/5 ml) it was 122 ± 8 copies. Also, the “number of HIV-1 proviral copies compared to control cells (in words)” value with HIV-1 (HTLVIIIb) [2] (matrix-bound, incubated with HUT 78 cells 7 hours prior to infection) was “significantly reduces”. Moreover, the “es-LAPase reaction rate versus control es-LAPase (FIG. 3)” value in the data set on es-LAPase is recorded as “significant slower rates”. Also, the Michaelis-Menten constant (Km) in the data set with es-LAPase (es-LAPase with 17 μM inhibitor) was 23.4 ± 0.6 µM. Moreover, the Vmax in the data set on es-LAPase (es-LAPase with 17 μM inhibitor) is recorded as 5.31 ± 0.02 10^−6 M/min. Further, the “mode of es-LAPase inhibition” value with es-LAPase is given as “uncompetitive”.
